Measured values from patent US12209144B2, “Cyclic peptides as proprotein convertase subtilisin/kexin type 9 (PCSK9) inhibitors for the treatment of metabolic disorders” (Novartis AG, priority 2018, dated 2025).
Bridge positions count the residues as written; N and C are the ends. Square brackets hold non-standard residues; d marks the D form. Peptide text beside a SMILES is read from it. ξ: configuration not given here. Bip = N[C@@H](Cc1ccc(-c2ccccc2)cc1)C(=O)O; Phe(4-Cl) = N[C@@H](Cc1ccc(Cl)cc1)C(=O)O; NMeE = CN[C@@H](CCC(=O)O)C(=O)O; hSer = N[C@@H](CCO)C(=O)O; NMeA = CN[C@@H](C)C(=O)O; ξD = NC(CC(=O)O)C(=O)O

molecular target: human PCSK9 (Homo sapiens, UniProt Q8NBP7); test: PCSK9 ligand binding assay (TR-FRET): interference with binding of human PCSK9 to human LDLR; settings: PCSK9 FRET assay, efficacy (Amax); 0% = DMSO, 100% = 1 uM unlabeled human PCSK9
Sequence (Q8NBP7 153-692): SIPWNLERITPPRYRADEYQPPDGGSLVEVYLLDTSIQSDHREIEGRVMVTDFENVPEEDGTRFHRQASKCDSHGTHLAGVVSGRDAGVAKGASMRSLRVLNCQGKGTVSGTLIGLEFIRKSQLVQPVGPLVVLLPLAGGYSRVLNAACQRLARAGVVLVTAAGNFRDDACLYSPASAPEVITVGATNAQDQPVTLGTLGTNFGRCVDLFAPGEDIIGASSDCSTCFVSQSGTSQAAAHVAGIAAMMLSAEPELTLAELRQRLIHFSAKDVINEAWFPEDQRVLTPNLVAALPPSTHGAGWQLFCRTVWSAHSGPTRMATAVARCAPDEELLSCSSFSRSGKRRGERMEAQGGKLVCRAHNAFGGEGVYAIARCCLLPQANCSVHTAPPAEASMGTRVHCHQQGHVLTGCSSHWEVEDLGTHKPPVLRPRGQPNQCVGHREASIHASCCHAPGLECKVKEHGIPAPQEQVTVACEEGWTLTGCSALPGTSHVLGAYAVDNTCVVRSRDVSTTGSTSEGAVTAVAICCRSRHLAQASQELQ
Sequence (Q8NBP7 31-152 partner limits assumed): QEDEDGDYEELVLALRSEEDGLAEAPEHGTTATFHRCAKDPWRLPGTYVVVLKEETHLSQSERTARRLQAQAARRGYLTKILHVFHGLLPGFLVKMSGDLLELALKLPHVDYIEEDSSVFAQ

| Compound | Maximum % inhibition [%] |
| --- | --- |
| CC(C)[C@@H]1NC(=O)[C@H](Cc2ccccc2)NC(=O)CSC[C@@H](C(N)=O)NC(=O)[C@@H]2CCCN2C(=O)[C@H](C)NC(=O)[C@@H]2CCCN2C(=O)[C@H](C)N(C)C(=O)[C@H](Cc2ccc(Cl)cc2)NC(=O)[C@H](C)N(C)C(=O)[C@H](Cc2ccccc2)NC(=O)[C@H]([C@@H](C)O)NC(=O)[C@H]([C@@H](C)O)NC(=O)[C@@H]2CCCN2C1=O [Example 2-1, (6S,8aS,14S,17S,20S,23S,26S,29S,31aS,37S,40S,46R,48aS)-23,40-dibenzyl-17-(4-chlorobenzyl)-26,29-bis((R)-1-hydroxyethyl)-37-isopropyl-6,14,15,20,21-pentamethyl-5,8,13,16,19,22,25,28,31,36,39,42,48-tridecaoxohexatetracontahydro-13H-tripyrrolo[1,2-e1:1′,2′-j:1″,2″-k1][1]thia[4,7,10,13,16,19,22,25,28,31,34,37,40]tridecaazacyclodo-tetracontine-46-carboxamide] ({CH2CO}-FVPTTF[NMeA][Phe(4-Cl)][NMeA]PAPC-NH2; thioether N-13) | 50 |
| CC(C)[C@@H]1NC(=O)[C@H](Cc2ccccc2)NC(=O)CSC[C@@H](C(N)=O)NC(=O)[C@@H]2CCCN2C(=O)[C@H](C)NC(=O)C(CC(=O)O)NC(=O)[C@H](C)N(C)C(=O)[C@H](Cc2ccc(Cl)cc2)NC(=O)[C@H](C)N(C)C(=O)[C@H](Cc2ccccc2)NC(=O)[C@H]([C@@H](C)O)NC(=O)[C@H]([C@@H](C)O)NC(=O)[C@@H]2CCCN2C1=O (stereo partly drawn) [Example 2-2, Ac*-F-V-P-T-T-F-(N-Me)A-(p-Cl)F-(N-Me)A-D-A-P-C*-NH2] ({CH2CO}-FVPTTF[NMeA][Phe(4-Cl)][NMeA][ξD]APC-NH2; thioether N-13) | 72 |
| CC(C)[C@@H]1NC(=O)[C@H](Cc2ccccc2)NC(=O)CSC[C@@H](C(N)=O)NC(=O)[C@@H]2CCCN2C(=O)[C@H](C)NC(=O)C(CC(=O)O)NC(=O)[C@H](C)N(C)C(=O)[C@H](Cc2ccc(Cl)cc2)NC(=O)[C@H](C)N(C)C(=O)[C@H](Cc2ccccc2)NC(=O)[C@H]([C@@H](C)O)NC(=O)[C@H]([C@@H](C)O)NC(=O)[C@H](CCO)NC1=O (stereo partly drawn) [Example 2-3, Ac*-F-V-HomoSer-T-T-F-(N-Me)A-(p-Cl)F-(N-Me)A-D-A-P-C*-NH2] ({CH2CO}-FV[hSer]TTF[NMeA][Phe(4-Cl)][NMeA][ξD]APC-NH2; thioether N-13) | 75 |
| CC(C)[C@@H]1NC(=O)[C@H](Cc2ccccc2)NC(=O)CSC[C@@H](C(N)=O)NC(=O)[C@@H]2CCCN2C(=O)[C@H](CCCNC(=N)N)NC(=O)[C@H](CC(=O)O)NC(=O)[C@H](C)N(C)C(=O)[C@H](Cc2ccc(-c3ccccc3)cc2)NC(=O)[C@H](C)N(C)C(=O)[C@H](Cc2ccc(-c3ccccc3)cc2)NC(=O)[C@H]([C@@H](C)O)NC(=O)[C@H]([C@@H](C)O)NC(=O)[C@H](CO)NC1=O [Example 2-4, Ac*-F-V-S-T-T-B-(N-Me)A-B-(N-Me)A-D-R-P-C*-NH2] ({CH2CO}-FVSTT[Bip][NMeA][Bip][NMeA]DRPC-NH2; thioether N-13) | 28 |
| CC(C)[C@@H]1NC(=O)[C@H](Cc2ccccc2)NC(=O)CSC[C@@H](C(N)=O)NC(=O)[C@@H]2CCCN2C(=O)[C@H](C)NC(=O)[C@H](CC(N)=O)NC(=O)[C@H](C)N(C)C(=O)[C@H](Cc2ccc(Cl)cc2)NC(=O)[C@H](C)N(C)C(=O)[C@H](Cc2ccccc2)NC(=O)[C@H]([C@@H](C)O)NC(=O)[C@H]([C@@H](C)O)NC(=O)[C@H](C)NC1=O [Example 2-5, Ac*-F-V-A-T-T-F-(N-Me)A-(p-Cl)F-(N-Me)A-N-A-P-C*-NH2] ({CH2CO}-FVATTF[NMeA][Phe(4-Cl)][NMeA]NAPC-NH2; thioether N-13) | 46 |
| CC(C)[C@@H]1NC(=O)[C@H]([C@@H](C)O)NC(=O)[C@H]([C@@H](C)O)NC(=O)[C@@H]2CCCN2C(=O)[C@H](C(C)C)NC(=O)[C@H](Cc2ccccc2)NC(=O)CSC[C@@H](C(N)=O)NC(=O)[C@@H]2CCCN2C(=O)[C@H](C)NC(=O)[C@H](CCC(=O)O)NC(=O)[C@H](C)N(C)C(=O)[C@H](Cc2ccc(Cl)cc2)NC(=O)[C@H](C)N(C)C1=O [Example 2-6, Ac*-F-V-P-T-T-V-(N-Me)A-(p-Cl)F-(N-Me)A-E-A-P-C*-NH2] ({CH2CO}-FVPTTV[NMeA][Phe(4-Cl)][NMeA]EAPC-NH2; thioether N-13) | 83 |

Results, then the compound that gave them:

| Maximum % inhibition [%] | Compound |
| --- | --- |
| 61 | CCNC(=O)[C@@H]1CSCC(=O)N[C@@H](Cc2ccccc2)C(=O)N[C@@H](C(C)C)C(=O)N[C@@H](CC(N)=O)C(=O)N[C@@H]([C@@H](C)O)C(=O)N[C@@H]([C@@H](C)O)C(=O)N[C@@H](Cc2ccccc2)C(=O)N(C)[C@@H](C)C(=O)N[C@@H](Cc2ccc(-c3ccccc3)cc2)C(=O)N(C)[C@@H](C)C(=O)N(C)[C@@H](CCC(=O)O)C(=O)N[C@@H](C)C(=O)N2CCC[C@H]2C(=O)N1 [Example 3-1, 3-((3R,9S,12S,15S,18S,21S,24S,27S,30S,33S,36S,39S,44aS)-30-([1,1′-biphenyl]-4-ylmethyl)-15-(2-amino-2-oxoethyl)-9,24-dibenzyl-3-(ethylcarbamoyl)-18,21-bis((R)-1-hydroxyethyl)-12-isopropyl-26,27,32,33,35,39-hexamethyl-1,7,10,13,16,19,22,25,28,31,34,37,40-tridecaoxodotetracontahydro-6H-pyrrolo[2,1-f][1]thia[4,7,10,13,16,19,22,25,28,31,34,37,40]tridecaazacyclodotetracontin-36-yl)propanoic acid] ({CH2CO}-FVNTTF[NMeA][Bip][NMeA][NMeE]APC-NHEt; thioether N-13) |
| 83 | CCNC(=O)[C@@H]1CSCC(=O)N[C@@H](Cc2ccccc2)C(=O)N[C@@H](C(C)C)C(=O)N2CCC[C@H]2C(=O)N[C@@H]([C@@H](C)O)C(=O)N[C@@H]([C@@H](C)O)C(=O)N[C@@H](Cc2ccccc2)C(=O)N(C)[C@@H](C)C(=O)N[C@@H](Cc2ccc(-c3ccccc3)cc2)C(=O)N(C)[C@@H](C)C(=O)N[C@@H](CCC(=O)O)C(=O)N[C@@H](C)C(=O)N2CCC[C@H]2C(=O)N1 [Example 3-2, Ac*-F-V-P-T-T-F-(N-Me)A-B-(N-Me)A-E-A-P-C*-NHEt] ({CH2CO}-FVPTTF[NMeA][Bip][NMeA]EAPC-NHEt; thioether N-13) |
| 87 | CCNC(=O)[C@@H]1CSCC(=O)N[C@@H](Cc2ccccc2)C(=O)N[C@@H](C(C)C)C(=O)N2CCC[C@H]2C(=O)N[C@@H]([C@@H](C)O)C(=O)N[C@@H]([C@@H](C)O)C(=O)N[C@@H](Cc2ccc(-c3ccccc3)cc2)C(=O)N(C)[C@@H](C)C(=O)N[C@@H](Cc2ccc(-c3ccccc3)cc2)C(=O)N(C)[C@@H](C)C(=O)N[C@@H](CCC(=O)O)C(=O)N[C@@H](C)C(=O)N2CCC[C@H]2C(=O)N1 [Example 3-3, Ac*-F-V-P-T-T-B-(N-Me)A-B-(N-Me)A-E-A-P-C*-NHEt] |
| 49 | CCNC(=O)[C@@H]1CSCC(=O)N[C@@H](Cc2ccccc2)C(=O)N[C@@H](C(C)C)C(=O)N2CCC[C@H]2C(=O)N[C@@H]([C@@H](C)O)C(=O)N[C@@H]([C@@H](C)O)C(=O)N[C@@H](Cc2ccc(-c3ccccc3)cc2)C(=O)N(C)[C@@H](C)C(=O)N[C@@H](Cc2ccc(-c3ccccc3)cc2)C(=O)N(C)[C@@H](C)C(=O)N[C@@H](C)C(=O)N[C@@H](C)C(=O)N2CCC[C@H]2C(=O)N1 [Example 3-4, Ac*-F-V-P-T-T-B-(N-Me)A-B-(N-Me)A-A-A-P-C*-NHEt] ({CH2CO}-FVPTT[Bip][NMeA][Bip][NMeA]AAPC-NHEt; thioether N-13) |
